# Laboratory results reported in patent US20020137929A1, “1 - (3-heterocyclylphenyl) isothiourea, -isourea, -guanidine and -amidine herbicidal agents” (Intellectual Property Department, BASF Aktiengesellschaft, priority 1998, published 2002).
# Tests used:
# [1] = tested on: SETVI (Foxtail, Green); assay: Postemergence herbicidal evaluation; type: in vivo, Setaria viridis; conditions: postemergence
# How it was run: (§1)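 ~2-wk seedlings; postemergence spray, 40 psi; vehicle 1:1 acetone:water + 0.5% Tween 20; rate ≈0.0156–0.500 kg/ha; greenhouse hold; scored 4–5 wk after treatment, 0–9 scale vs control; repeat tests averaged.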
# [2] = tested on: CHEAL (Lambsquarters, Common); assay: Postemergence herbicidal evaluation; type: in vivo, Chenopodium album; conditions: postemergence
# How it was run: as §1
# [3] = tested on: CASOB (Sicklepod); assay: Preemergence herbicidal evaluation; type: in vivo, Cassia obtusifolia; conditions: rated 4-5 weeks after treatment
# How it was run: (§2)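 In this greenhouse assay, monocot and dicot seeds are planted in soil and treated prior to emergence with an aqueous acetone spray (about 0.0156-0.500 kg/ha). Plants are assessed visually against control on a 0-9 scale after 4-5 weeks.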
# [4] = tested on: CYPSE (Flatsedge); assay: Postemergence weed control under flooded paddy conditions; type: in vivo, Cyperus serotinus; conditions: postemergence weeds, rated 3 to 4 weeks after treatment
# How it was run: (§3)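 Weeds 3 to 5 cm tall and rice seedlings at the 1.5 to 2.5 leaf stage were flooded, with water held 1.5 to 3 cm above the soil. Compounds in 50/50 v/v aqueous/acetone went into the flood water at about 0.0313 to 0.500 kg/ha. Visual 0-9 ratings versus control were made 3 to 4 weeks later.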
# [5] = tested on: IPOHE (Morningglory, Ivyleaf); assay: Postemergence herbicidal evaluation; type: in vivo, Ipomoea hederacea; conditions: postemergence
# How it was run: as §1
# [6] = tested on: ABUTH (Velvetleaf); assay: Postemergence herbicidal evaluation; type: in vivo, Abutilon theophrasti; conditions: postemergence
# How it was run: as §1
# [7] = tested on: CYPIR (Rice Flatsedge); assay: Postemergence weed control under flooded paddy conditions; type: in vivo, Cyperus iria; conditions: postemergence weeds, rated 3 to 4 weeks after treatment
# How it was run: as §3
# [8] = tested on: ZEAMX (Corn, Field); assay: Preemergence herbicidal evaluation; type: in vivo, Zea mays; conditions: rated 4-5 weeks after treatment
# How it was run: as §2
# [9] = tested on: ECHCG (Barnyardgrass); assay: Preemergence herbicidal evaluation; type: in vivo, Echinochloa crus-galli; conditions: rated 4-5 weeks after treatment
# How it was run: as §2
# [10] = tested on: GLXMAW (Soybean, Williams); assay: Preemergence herbicidal evaluation; type: in vivo, Glycine max, (L.) Merr. cv Williams; conditions: rated 4-5 weeks after treatment
# How it was run: as §2
# [11] = tested on: IPOHE (Morningglory, Ivyleaf); assay: Preemergence herbicidal evaluation; type: in vivo, Ipomoea hederacea; conditions: rated 4-5 weeks after treatment
# How it was run: as §2
# [12] = tested on: TRZAWR (Wheat, Winter, cv Riband); assay: Preemergence herbicidal evaluation; type: in vivo, Triticum aestivum; conditions: rated 4-5 weeks after treatment
# How it was run: as §2
# [13] = tested on: ABUTH (Velvetleaf); assay: Preemergence herbicidal evaluation; type: in vivo, Abutilon theophrasti; conditions: rated 4-5 weeks after treatment
# How it was run: as §2
# [14] = tested on: ZEAMX (Corn, Field); assay: Postemergence herbicidal evaluation; type: in vivo, Zea mays; conditions: postemergence
# How it was run: as §1
# [15] = tested on: CHEAL (Lambsquarters, Common); assay: Preemergence herbicidal evaluation; type: in vivo, Chenopodium album; conditions: rated 4-5 weeks after treatment
# How it was run: as §2
# [16] = tested on: ECHCG (Barnyardgrass); assay: Postemergence herbicidal evaluation; type: in vivo, Echinochloa crus-galli; conditions: postemergence
# How it was run: as §1
# [17] = tested on: ORYSAT (Rice, Tebonnet); assay: Postemergence herbicidal evaluation; type: in vivo, Oryza sativa, (L.) Tebonnet; conditions: postemergence
# How it was run: as §1
smiles,measurement,setting,value
"COC(=O)C(Cc1ccc(Cl)cc1)N1C(=O)CSC1=Nc1cc(-n2c(=O)cc(C(F)(F)F)n(C)c2=O)c(F)cc1Cl (racemic) [Compound 77, Methyl α-(p-chlorobenzyl)-2-{{2-chloro-5-[3,6-dihydro-3-methyl-2,6-dioxo-4-(trifluoromethyl)-1(2H)-pyrimidinyl]-4-fluorophenyl}imino}-4-oxo-3-thiazolidineacetate, DL-]",SETVI herbicidal rating,[1]; rate 0.0158 kg/ha,1.0
same,SETVI herbicidal rating,[1]; rate 0.0315 kg/ha,6.0
same,SETVI herbicidal rating,[1]; rate 0.0630 kg/ha,7.0
same,CHEAL herbicidal rating,[2]; rate 0.0158 kg/ha,6.0
same,CHEAL herbicidal rating,[2]; rate 0.0315 kg/ha,9.0
same,CHEAL herbicidal rating,[2]; rate 0.0630 kg/ha,9.0
same,Preemergence herbicidal rating CASOB,[3]; rate 0.0156 kg/ha,0.0
same,Preemergence herbicidal rating CASOB,[3]; rate 0.0313 kg/ha,0.0
same,Preemergence herbicidal rating CASOB,[3]; rate 0.0625 kg/ha,0.0
same,Preemergence herbicidal rating CASOB,[3]; rate 0.1250 kg/ha,0.0
same,Preemergence herbicidal rating CASOB,[3]; rate 0.2500 kg/ha,0.0
same,Herbicidal rating CYPSE,[4]; Rate 0.0313 kg/ha,0.0
same,Herbicidal rating CYPSE,[4]; Rate 0.0625 kg/ha,0.0
same,Herbicidal rating CYPSE,[4]; Rate 0.1250 kg/ha,0.0
same,Herbicidal rating CYPSE,[4]; Rate 0.2500 kg/ha,4.0
same,IPOHE herbicidal rating,[5]; rate 0.0158 kg/ha,9.0
same,IPOHE herbicidal rating,[5]; rate 0.0315 kg/ha,9.0
same,IPOHE herbicidal rating,[5]; rate 0.0630 kg/ha,9.0
same,ABUTH herbicidal rating,[6]; rate 0.0158 kg/ha,9.0
same,ABUTH herbicidal rating,[6]; rate 0.0315 kg/ha,9.0
same,ABUTH herbicidal rating,[6]; rate 0.0630 kg/ha,9.0
same,Herbicidal rating CYPIR,[7]; Rate 0.0313 kg/ha,0.0
same,Herbicidal rating CYPIR,[7]; Rate 0.0625 kg/ha,0.0
same,Herbicidal rating CYPIR,[7]; Rate 0.1250 kg/ha,0.0
same,Herbicidal rating CYPIR,[7]; Rate 0.2500 kg/ha,0.0
same,Preemergence herbicidal rating ZEAMX,[8]; rate 0.0156 kg/ha,2.0
same,Preemergence herbicidal rating ZEAMX,[8]; rate 0.0313 kg/ha,0.0
same,Preemergence herbicidal rating ZEAMX,[8]; rate 0.0625 kg/ha,0.0
same,Preemergence herbicidal rating ZEAMX,[8]; rate 0.1250 kg/ha,0.0
same,Preemergence herbicidal rating ZEAMX,[8]; rate 0.2500 kg/ha,1.0
same,Preemergence herbicidal rating ECHCG,[9]; rate 0.0156 kg/ha,0.0
same,Preemergence herbicidal rating ECHCG,[9]; rate 0.0313 kg/ha,0.0
same,Preemergence herbicidal rating ECHCG,[9]; rate 0.0625 kg/ha,0.0
same,Preemergence herbicidal rating ECHCG,[9]; rate 0.1250 kg/ha,0.0
same,Preemergence herbicidal rating ECHCG,[9]; rate 0.2500 kg/ha,0.0
same,Preemergence herbicidal rating GLXMAW,[10]; rate 0.0156 kg/ha,0.0
same,Preemergence herbicidal rating GLXMAW,[10]; rate 0.0313 kg/ha,0.0
same,Preemergence herbicidal rating GLXMAW,[10]; rate 0.0625 kg/ha,0.0
same,Preemergence herbicidal rating GLXMAW,[10]; rate 0.1250 kg/ha,0.0
same,Preemergence herbicidal rating GLXMAW,[10]; rate 0.2500 kg/ha,1.0
same,Preemergence herbicidal rating IPOHE,[11]; rate 0.0156 kg/ha,1.0
same,Preemergence herbicidal rating IPOHE,[11]; rate 0.0313 kg/ha,0.0
same,Preemergence herbicidal rating IPOHE,[11]; rate 0.0625 kg/ha,0.0
same,Preemergence herbicidal rating IPOHE,[11]; rate 0.1250 kg/ha,0.0
same,Preemergence herbicidal rating IPOHE,[11]; rate 0.2500 kg/ha,2.0
same,Preemergence herbicidal rating TRZAWR,[12]; rate 0.0156 kg/ha,0.0
same,Preemergence herbicidal rating TRZAWR,[12]; rate 0.0313 kg/ha,0.0
same,Preemergence herbicidal rating TRZAWR,[12]; rate 0.0625 kg/ha,0.0
same,Preemergence herbicidal rating TRZAWR,[12]; rate 0.1250 kg/ha,1.0
same,Preemergence herbicidal rating TRZAWR,[12]; rate 0.2500 kg/ha,0.0
same,Preemergence herbicidal rating ABUTH,[13]; rate 0.0156 kg/ha,1.0
same,Preemergence herbicidal rating ABUTH,[13]; rate 0.0313 kg/ha,0.0
same,Preemergence herbicidal rating ABUTH,[13]; rate 0.0625 kg/ha,9.0
same,Preemergence herbicidal rating ABUTH,[13]; rate 0.1250 kg/ha,9.0
same,Preemergence herbicidal rating ABUTH,[13]; rate 0.2500 kg/ha,9.0
same,ZEAMX herbicidal rating,[14]; rate 0.0158 kg/ha,4.0
same,ZEAMX herbicidal rating,[14]; rate 0.0315 kg/ha,3.5
same,ZEAMX herbicidal rating,[14]; rate 0.0630 kg/ha,4.5
same,Preemergence herbicidal rating CHEAL,[15]; rate 0.0156 kg/ha,2.0
same,Preemergence herbicidal rating CHEAL,[15]; rate 0.0313 kg/ha,9.0
same,Preemergence herbicidal rating CHEAL,[15]; rate 0.0625 kg/ha,9.0
same,Preemergence herbicidal rating CHEAL,[15]; rate 0.1250 kg/ha,9.0
same,Preemergence herbicidal rating CHEAL,[15]; rate 0.2500 kg/ha,9.0
same,ECHCG herbicidal rating,[16]; rate 0.0158 kg/ha,1.0
same,ECHCG herbicidal rating,[16]; rate 0.0315 kg/ha,1.0
same,ECHCG herbicidal rating,[16]; rate 0.0630 kg/ha,1.0
same,ORYSAT herbicidal rating,[17]; rate 0.0158 kg/ha,2.0
same,ORYSAT herbicidal rating,[17]; rate 0.0315 kg/ha,2.0
same,ORYSAT herbicidal rating,[17]; rate 0.0630 kg/ha,3.0
"C=CCN1C(=O)C(CC(=O)NS(=O)(=O)c2ccccc2)SC1=Nc1cc(-n2c(=O)cc(C(F)(F)F)n(C)c2=O)c(F)cc1Cl (centres unmarked) [Compound 101, 3-Allyl-2-{{2-chloro-5-[3,6-dihydro-3-methyl-2,6-dioxo-4-(trifluoromethyl)-1(2H)-pyrimidinyl]-4-fluorophenyl}imino}-4-oxo-N-(phenylsulfonyl)-5-thiazolidineacetamide]",Herbicidal rating SETVI,[1]; rate 0.0156 kg/ha,2.0
same,Herbicidal rating SETVI,[1]; rate 0.0313 kg/ha,1.0
same,Herbicidal rating SETVI,[1]; rate 0.0625 kg/ha,5.0
same,Herbicidal rating SETVI,[1]; rate 0.1250 kg/ha,5.0
same,Herbicidal rating CHEAL,[2]; rate 0.0156 kg/ha,4.0
same,Herbicidal rating CHEAL,[2]; rate 0.0313 kg/ha,4.0
same,Herbicidal rating CHEAL,[2]; rate 0.0625 kg/ha,4.0
same,Herbicidal rating CHEAL,[2]; rate 0.1250 kg/ha,7.0
same,Herbicidal rating CYPSE,[4]; Rate 0.0313 kg/ha,0.0
same,Herbicidal rating CYPSE,[4]; Rate 0.0625 kg/ha,0.0
same,Herbicidal rating CYPSE,[4]; Rate 0.1250 kg/ha,0.0
same,Herbicidal rating CYPSE,[4]; Rate 0.2500 kg/ha,0.0
same,Herbicidal rating CYPSE,[4]; Rate 0.5000 kg/ha,0.0
same,Herbicidal rating IPOHE,[5]; rate 0.0156 kg/ha,4.0
same,Herbicidal rating IPOHE,[5]; rate 0.0313 kg/ha,9.0
same,Herbicidal rating IPOHE,[5]; rate 0.0625 kg/ha,9.0
same,Herbicidal rating IPOHE,[5]; rate 0.1250 kg/ha,9.0
same,Herbicidal rating ABUTH,[6]; rate 0.0156 kg/ha,3.0
same,Herbicidal rating ABUTH,[6]; rate 0.0313 kg/ha,7.0
same,Herbicidal rating ABUTH,[6]; rate 0.0625 kg/ha,9.0
same,Herbicidal rating ABUTH,[6]; rate 0.1250 kg/ha,9.0
same,Herbicidal rating CYPIR,[7]; Rate 0.0313 kg/ha,0.0
same,Herbicidal rating CYPIR,[7]; Rate 0.0625 kg/ha,0.0
same,Herbicidal rating CYPIR,[7]; Rate 0.1250 kg/ha,0.0
same,Herbicidal rating CYPIR,[7]; Rate 0.2500 kg/ha,3.0
same,Herbicidal rating CYPIR,[7]; Rate 0.5000 kg/ha,4.0
same,Herbicidal rating ZEAMX,[14]; rate 0.0156 kg/ha,4.5
same,Herbicidal rating ZEAMX,[14]; rate 0.0313 kg/ha,4.5
same,Herbicidal rating ZEAMX,[14]; rate 0.0625 kg/ha,5.0
same,Herbicidal rating ZEAMX,[14]; rate 0.1250 kg/ha,5.0
same,Herbicidal rating ECHCG,[16]; rate 0.0156 kg/ha,1.0
same,Herbicidal rating ECHCG,[16]; rate 0.0313 kg/ha,2.0
same,Herbicidal rating ECHCG,[16]; rate 0.0625 kg/ha,3.0
same,Herbicidal rating ECHCG,[16]; rate 0.1250 kg/ha,5.0
same,Herbicidal rating ORYSAT,[17]; rate 0.0156 kg/ha,2.5
same,Herbicidal rating ORYSAT,[17]; rate 0.0313 kg/ha,3.0
same,Herbicidal rating ORYSAT,[17]; rate 0.0625 kg/ha,4.0
same,Herbicidal rating ORYSAT,[17]; rate 0.1250 kg/ha,4.0
